We go through 2 molecules from patent US9849100B2, “Pharmaceutical compositions suitable for parenteral administration comprising aqueous suspensions of benzylamine derivatives having low solubilities” (KalVista Pharmaceuticals Limited, priority 2013, dated 2017).

The test system of one data set is diabetic rats. Particulars: cited from earlier work.
The nature of data set [1]: Ocular tissue concentration study at twelve weeks following a single intravitreal dose in pigmented rabbits. The class given is in vivo. The note with it: both sexes, Dutch-belted, rabbit, other: intravitreal, single bilateral intravitreal dose of suspension, Day 86. The protocol: An aqueous suspension pharmaceutical composition of milled N—[(R)-1-[(S)-1-(4-aminomethyl-benzylcarbamoyl)-2-phenyl-ethylcarbamoyl]-2-(4-ethoxy-phenyl)-ethyl]-benzamide hydrochloride was prepared according to Example B1. The resulting nominal 50 mg/mL suspension was diluted with the milling vehicle (prepared according to Example B1) into dosing formulations for intravitreal injection. Five experimentally naïve male and female Dutch-belted rabbits, approximately 5 months old and weighing 1.6 to 2.2 kilograms at the outset of the study were assigned to treatment groups as shown in Table iv. [table] Animals were administered bilateral intravitreal doses of the suspension formulations once on Day 1. On Day 86, the vitreous humors and retina (with choroid) tissues were analysed for active ingredient concentration.

Where two headings read alike, the source gives them in different places.

With `N=C(N)c1ccc(CNC(=O)c2cnn(Cc3ccccc3)c2)cc1` [ASP-440], in the data set with diabetic rats, the “retinal blood flow abnormalities” value is “ameliorated” and the retinal vascular permeability entry is on record as “ameliorated”.
In the case of `CCOc1ccc(C[C@@H](NC(=O)c2ccccc2)C(=O)N[C@@H](Cc2ccccc2)C(=O)NCc2ccc(CN)cc2)cc1` [active ingredient, N—[(R)-1-[(S)-1-(4-aminomethyl-benzylcarbamoyl)-2-phenyl-ethylcarbamoyl]-2-(4-ethoxy-phenyl)-ethyl]-benzamide], the concentration at 86 day in data set [1] (retina (with choroid), 15 μg/eye, low-dose group (15 μg/eye), read-out: average retina (with choroid) tissue concentration) was 1620 ng/g; in data set [1] (retina (with choroid), 150 μg/eye, high-dose group (150 μg/eye), read-out: average retina (with choroid) tissue concentration), 44500 ng/g; in data set [1] (vitreous humor, 15 μg/eye, low-dose group (15 μg/eye), read-out: vitreous humor concentrations (range)) it was 0.216 to 935 ng/mL; in data set [1] (vitreous humor, 150 μg/eye, high-dose group (150 μg/eye), read-out: average vitreous humor concentration), 27800 ng/mL; in data set [1] (vitreous humor, 150 μg/eye, high-dose group (150 μg/eye), read-out: vitreous humor concentrations (range)) it was 2500 to 56500 ng/mL.
